Three molecules from publication PMC5960316 (Proceedings of the National Academy of Sciences of the …, 2018) can be followed below.

In assay [1] the target is T1, endogenous NrdEF (BsNrdEF) (Bacillus subtilis, UniProt P50620).
T1 sequence (P50620 1-700): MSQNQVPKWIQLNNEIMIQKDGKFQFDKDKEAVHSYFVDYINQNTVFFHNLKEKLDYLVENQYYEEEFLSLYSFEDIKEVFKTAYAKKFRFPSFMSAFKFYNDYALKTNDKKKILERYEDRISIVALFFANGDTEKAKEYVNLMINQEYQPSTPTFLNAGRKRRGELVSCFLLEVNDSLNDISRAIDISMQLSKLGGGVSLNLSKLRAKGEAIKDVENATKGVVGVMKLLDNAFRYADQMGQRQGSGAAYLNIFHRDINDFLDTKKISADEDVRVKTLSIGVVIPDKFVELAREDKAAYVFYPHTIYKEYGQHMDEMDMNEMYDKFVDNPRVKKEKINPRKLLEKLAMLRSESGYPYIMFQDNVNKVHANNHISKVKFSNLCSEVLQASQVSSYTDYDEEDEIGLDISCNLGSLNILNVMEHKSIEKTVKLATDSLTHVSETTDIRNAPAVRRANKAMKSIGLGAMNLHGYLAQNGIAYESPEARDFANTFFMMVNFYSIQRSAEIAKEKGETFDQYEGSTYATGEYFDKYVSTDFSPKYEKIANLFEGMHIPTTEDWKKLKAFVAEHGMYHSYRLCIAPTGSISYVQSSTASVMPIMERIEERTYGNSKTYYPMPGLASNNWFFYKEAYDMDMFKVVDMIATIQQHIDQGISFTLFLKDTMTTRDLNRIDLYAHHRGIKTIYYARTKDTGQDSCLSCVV
T1 sequence (P50621 1-329 partner): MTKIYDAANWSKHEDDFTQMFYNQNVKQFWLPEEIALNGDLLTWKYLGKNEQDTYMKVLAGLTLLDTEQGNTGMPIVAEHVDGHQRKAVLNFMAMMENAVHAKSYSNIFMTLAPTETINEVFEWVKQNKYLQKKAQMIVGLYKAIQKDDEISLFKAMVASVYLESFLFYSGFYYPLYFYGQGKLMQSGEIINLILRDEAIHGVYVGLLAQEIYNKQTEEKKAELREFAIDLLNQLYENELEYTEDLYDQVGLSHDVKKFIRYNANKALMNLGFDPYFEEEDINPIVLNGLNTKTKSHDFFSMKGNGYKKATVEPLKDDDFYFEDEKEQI
Kind of assay: HClO4 release and high-resolution LC/ESI-MS of copurified nucleotide. The settings on record: stoichiometry, not affinity; native copurified ligand; protein ~80% pure. In kind it is binding.

Assay [2] concerns the target T2, B. subtilis class Ib RNR (NrdE with Mn(III)2-Y• NrdF) (Bacillus subtilis, UniProt P50620).
T2 sequence (P50620 1-700): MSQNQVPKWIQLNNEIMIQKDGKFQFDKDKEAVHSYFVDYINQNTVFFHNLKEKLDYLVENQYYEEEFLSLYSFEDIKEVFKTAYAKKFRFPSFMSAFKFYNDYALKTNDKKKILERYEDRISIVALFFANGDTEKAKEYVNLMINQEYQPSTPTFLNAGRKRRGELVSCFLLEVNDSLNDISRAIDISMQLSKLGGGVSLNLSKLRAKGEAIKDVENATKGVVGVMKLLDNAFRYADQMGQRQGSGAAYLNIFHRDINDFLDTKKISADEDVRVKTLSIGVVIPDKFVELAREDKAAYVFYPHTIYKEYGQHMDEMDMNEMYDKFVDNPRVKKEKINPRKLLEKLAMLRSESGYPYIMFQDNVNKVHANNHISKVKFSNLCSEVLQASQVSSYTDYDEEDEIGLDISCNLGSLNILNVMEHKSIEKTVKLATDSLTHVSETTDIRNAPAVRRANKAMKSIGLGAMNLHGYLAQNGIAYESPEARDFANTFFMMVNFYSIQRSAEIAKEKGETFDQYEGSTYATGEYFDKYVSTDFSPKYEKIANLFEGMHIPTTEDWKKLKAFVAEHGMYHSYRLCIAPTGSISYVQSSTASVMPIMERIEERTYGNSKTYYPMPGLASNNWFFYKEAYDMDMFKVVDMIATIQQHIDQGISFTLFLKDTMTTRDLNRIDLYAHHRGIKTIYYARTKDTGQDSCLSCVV
T2 sequence (P50621 1-329 partner): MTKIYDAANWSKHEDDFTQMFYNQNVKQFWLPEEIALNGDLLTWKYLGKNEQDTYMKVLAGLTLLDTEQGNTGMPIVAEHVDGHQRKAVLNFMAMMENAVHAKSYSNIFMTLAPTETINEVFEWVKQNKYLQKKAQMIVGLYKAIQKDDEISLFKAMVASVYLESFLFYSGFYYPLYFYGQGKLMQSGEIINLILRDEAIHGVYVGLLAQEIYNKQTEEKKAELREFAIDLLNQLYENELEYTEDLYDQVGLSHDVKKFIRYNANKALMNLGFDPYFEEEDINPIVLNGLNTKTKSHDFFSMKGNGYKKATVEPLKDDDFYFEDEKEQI
Description: spectrophotometric RNR activity assay, dATP titration. In kind it is biochemical. The settings on record: read-out: % activity remaining at 25 μM.

In assay [3] the target is T3, Bacillus subtilis NrdE isolated from B. subtilis as the NrdE⋅NrdF (NrdEF) complex (Bacillus subtilis, UniProt P50620 1-700).
T3 sequence (looked up): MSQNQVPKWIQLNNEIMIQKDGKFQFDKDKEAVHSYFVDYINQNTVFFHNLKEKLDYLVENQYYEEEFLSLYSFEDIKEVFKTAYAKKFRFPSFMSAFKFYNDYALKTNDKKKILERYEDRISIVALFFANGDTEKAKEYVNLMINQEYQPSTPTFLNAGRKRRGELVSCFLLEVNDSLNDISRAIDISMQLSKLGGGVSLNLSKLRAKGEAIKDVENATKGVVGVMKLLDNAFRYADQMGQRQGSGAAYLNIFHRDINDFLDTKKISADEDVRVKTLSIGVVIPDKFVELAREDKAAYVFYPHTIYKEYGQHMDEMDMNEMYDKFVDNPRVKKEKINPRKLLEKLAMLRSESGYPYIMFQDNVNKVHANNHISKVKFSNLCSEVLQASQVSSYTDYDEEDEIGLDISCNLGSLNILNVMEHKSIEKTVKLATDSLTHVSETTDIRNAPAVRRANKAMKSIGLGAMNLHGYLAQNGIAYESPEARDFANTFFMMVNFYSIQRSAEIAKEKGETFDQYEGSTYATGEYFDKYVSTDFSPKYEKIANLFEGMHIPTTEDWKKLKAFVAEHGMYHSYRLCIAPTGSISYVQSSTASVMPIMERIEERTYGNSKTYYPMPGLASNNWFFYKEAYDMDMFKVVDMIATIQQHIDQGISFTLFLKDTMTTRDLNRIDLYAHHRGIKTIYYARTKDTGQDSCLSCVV
Description: co-purification from B. subtilis.

In general, remaining activity refers to the signal under treatment as a percentage of the control signal. As usually defined, the stoichiometry N is a count of units in the complex or per binding partner.

Turning to `Nc1ncnc2c1ncn2[C@H]1C[C@H](O)[C@@H](COP(=O)(O)O)O1` [dAMP], the dAMP/α in assay [1] is 0.3 per α. Take `Nc1ncnc2c1ncn2[C@H]1C[C@H](O)[C@@H](COP(=O)(O)OP(=O)(O)OP(=O)(O)O)O1` [dATP]: the remaining activity at 25 µM in assay [2] was around 15%.

B1: Bacillus subtilis NrdF (Mn-loaded) isolated from B. subtilis as the NrdE⋅NrdF (NrdEF) complex (enzyme, UniProt P50621 1-329, looked up)
chain: MTKIYDAANWSKHEDDFTQMFYNQNVKQFWLPEEIALNGDLLTWKYLGKNEQDTYMKVLAGLTLLDTEQGNTGMPIVAEHVDGHQRKAVLNFMAMMENAVHAKSYSNIFMTLAPTETINEVFEWVKQNKYLQKKAQMIVGLYKAIQKDDEISLFKAMVASVYLESFLFYSGFYYPLYFYGQGKLMQSGEIINLILRDEAIHGVYVGLLAQEIYNKQTEEKKAELREFAIDLLNQLYENELEYTEDLYDQVGLSHDVKKFIRYNANKALMNLGFDPYFEEEDINPIVLNGLNTKTKSHDFFSMKGNGYKKATVEPLKDDDFYFEDEKEQI
Take B1: the “stoichiometry N” value in assay [3] is around 1.
